Structures can show the parent of a compound that is named as a salt. Where two headings read alike, the source gives them in different places.
Key:
[1] = test system: RSV (Group A, Long Strain); test: Cytopathetic effect (CPE) protection antiviral assay, MTT readout; type: cell-based; settings: human respiratory syncytial virus, HEp-2, 96 h, read-out: RSV EC50
HEp-2 cells = test: Cytotoxicity assay (MTT) run in parallel with the antiviral assay; type: cell-based; settings: uninfected HEp-2 cells, 4 days incubation, 50% toxicity dose
Method: HEp-2 cells and RSV (Group A, Long Strain) were obtained from the American Type Culture Collection (Manassas, Va.). Cytotoxicity of the compounds was determined in experiments done in parallel with the antiviral assays. To do this, 100 μL of assay medium was added to the wells of HEp-2 cells pretreated with 100 μL serially diluted compounds as described above. After 4 days of incubation, the viability of the cells was determined by the MT assay in the same way as detailed in the “Antiviral Assay” method. Results were expressed as 50% toxicity dose (TD50) values. Compounds were tested to determine both their antiviral and toxicity to determine their therapeutic window. Determination of the EC50 and TD50 of these active compounds were repeated one additional time to confirm the window.

[2] = HEp-2 cells, 0.2 MOI RSV, 4 days incubation, protection from CPE (Table 1)
[3] = HEp-2 cells, 0.2 MOI RSV, 4 days, Table 2, determination repeated to confirm window

SMILES	EC50 [1, 2]	EC50 [1, 3]	MTT TD50 (HEp-2 cells)	EC50 [1]
Cc1ccccc1N/C(=N/C#N)N1CCN(c2nccnc2C#N)CC1C(C)C (stereo not shown) [Example 1.1, N′-cyano-4-(3-cyanopyrazin-2-yl)-2-isopropyl-N-(2-methylphenyl)piperazine-1-carboximidamide]	0.89 µM	0.89 µM	>100 µM	
COC(=O)c1cnc(N2CCN(/C(=N\C#N)Nc3ccccc3Cl)C(C(C)C)C2)cn1 (stereo not shown) [Example 1.2, methyl 5-{4-[N-(2-chlorophenyl)-N′-cyanocarbamimidoyl]-3-isopropylpiperazin-1-yl}pyrazine-2-carboxylate]	1.13 µM	1.13 µM	>100 µM	
Cc1ccccc1N/C(=N/C#N)N1CCN(c2cnc3ccccc3n2)CC1C(C)C (stereo not shown) [Example 1.3, N′-cyano-2-isopropyl-N-(2-methylphenyl)-4-(quinoxalin-2-yl)piperazine-1-carboximidamide trifluoroacetate]			>32 µM	0.25 µM
Cc1ccccc1N/C(=N/C#N)N1CCN(c2nc3ccccc3o2)CC1C(C)C (stereo not shown) [Example 1.4, 4-(1,3-benzoxazol-2-yl)-N′-cyano-2-isopropyl-N-(2-methylphenyl)piperazine-1-carboximidamide]	1.14 µM	1.14 µM	28.85 µM	
Cc1ccccc1N/C(=N/C#N)N1CCN(c2nc3cccc(Cl)c3o2)CC1C(C)C (stereo not shown) [Example 1.5, 4-(7-chloro-1,3-benzoxazol-2-yl)-N′-cyano-2-isopropyl-N-(2-methylphenyl)piperazine-1-carboximidamide]	0.81 µM	0.81 µM	>10 µM	
Cc1ccccc1N/C(=N/C#N)N1CCN(c2nc3ccccc3s2)CC1C(C)C (stereo not shown) [Example 1.6, 4-(1,3-benzothiazol-2-yl)-N′-cyano-2-isopropyl-N-(2-methylphenyl)piperazine-1-carboximidamide]	1.59 µM	1.87 µM	>10 µM	
Cc1ccc2oc(N3CCN(/C(=N\C#N)Nc4ccccc4C)C(C(C)C)C3)nc2c1 (stereo not shown) [Example 1.7, N′-cyano-2-isopropyl-4-(5-methyl-1,3-benzoxazol-2-yl)-N-(2-methylphenyl)piperazine-1-carboximidamide]	0.83 µM	0.83 µM	>10 µM	
Cc1ccccc1N/C(=N/C#N)N1CCN(c2ncnc3ccccc23)CC1C(C)C (stereo not shown) [Example 1.8, N′-cyano-2-isopropyl-N-(2-methylphenyl)-4-(quinazolin-4-yl)piperazine-1-carboximidamide]	0.45 µM	0.3 µM	>100 µM	
Cc1ccccc1N/C(=N/C#N)N1CCN(c2nc3ccccc3[nH]2)CC1C(C)C (stereo not shown) [Example 1.9, 4-(1H-benzimidazol-2-yl)-N′-cyano-2-isopropyl-N-(2-methylphenyl)piperazine-1-carboximidamide]	4.09 µM	4.09 µM	>100 µM	
Cc1ccccc1N/C(=N/C#N)N1CCN(c2nc3ccccc3c(=O)[nH]2)CC1C(C)C (stereo not shown) [Example 1.10, N′-cyano-2-isopropyl-N-(2-methylphenyl)-4-(4-oxo-3,4-dihydroquinazolin-2-yl)piperazine-1-carboximidamide]	0.43 µM	0.43 µM	>100 µM	
Cc1ccccc1N/C(=N/C#N)N1CCN(c2ncnc3[nH]ccc23)CC1C(C)C (stereo not shown) [Example 1.11, N′-cyano-2-isopropyl-N-(2-methylphenyl)-4-(7H-pyrrolo[2,3-d]pyrimidin-4-yl)piperazine-1-carboximidamide]	1.41 µM	1.91 µM	>100 µM	
Cc1ccccc1N/C(=N/C#N)N1CCN(c2cnc3ccccc3n2)C[C@@H]1C(C)C [Example 1.13, (2S)—N′-cyano-2-isopropyl-N-(2-methylphenyl)-4-(quinoxalin-2-yl)piperazine-1-carboximidamide trifluoroacetate]			>38.6 µM	0.2 µM
CC(C)C1CN(c2cnc3ccccc3n2)CCN1/C(=N\C#N)Nc1ccccc1Cl (stereo not shown) [Example 1.19, N-(2-chlorophenyl)-N′-cyano-2-isopropyl-4-(quinoxalin-2-yl)piperazine-1-carboximidamide]	0.15 µM	0.15 µM	>27.49 µM	
CCC1CN(c2cnc3ccccc3n2)CCN1/C(=N\C#N)Nc1ccccc1C (stereo not shown) [Example 1.44, N′-cyano-2-ethyl-N-(2-methylphenyl)-4-(quinoxalin-2-yl)piperazine-1-carboximidamide]	0.12 µM	0.12 µM	42.06 µM	
Cc1ccccc1N/C(=N/C#N)N1CCN(c2cnc3cc(F)ccc3n2)CC1C(C)C (stereo not shown) [Example 1.54, N′-cyano-4-(6-fluoroquinoxalin-2-yl)-2-isopropyl-N-(2-methylphenyl)piperazine-1-carboximidamide]	0.26 µM	0.26 µM	>29.31 µM	
